Where “and” joins values, the source holds several entries; their conditions need not be identical. Equal values may be shown once. Toxic doses and inconclusive results are not listed. How the source made its calls: active means survival T/C of 150% or more; inactive means T/C below 125% in these data.
System: BDF1 mice, B16 melanoma ip, median survival T/C
Assay: NCI In Vivo Anticancer Drug Screen. Data for tumor model B16 Melanoma (intraperitoneal) in B6D2F1 (BDF1) mice
Conditions: endpoint: median survival time, higher = longer survival
Procedure: The antitumor activity of compounds was measured in mice bearing transplantable tumors. Survival or tumor size were measured and the results are expressed as the measurement made in the treated group (T) divided by the measurement made in the vehicle treated control group (C). The tumor model used in this assay is B16 Melanoma (intraperitoneal) in B6D2F1 (BDF1) mice

[1] = dose: 100.0 mg/kg/injection, schedule: Q01DX009 (ip), vehicle: Klucel (hydroxypropylcellulose) (HPC)
[2] = dose: 200.0 mg/kg/injection, schedule: Q01DX009 (ip), vehicle: Klucel (hydroxypropylcellulose) (HPC)

Measured: T/C

O=C(O)CC(NC(=O)CP(=O)(O)O)C(=O)O (centres undefined)
active: dose: 15.6 mg/kg/injection, schedule: Q03HX024 (ip), vehicle: saline 175 % of control | dose: 21.9 mg/kg/injection, schedule: Q01DX009 (ip), vehicle: saline 150 % of control | dose: 25.9 mg/kg/injection, schedule: Q03HX024 (ip), vehicle: saline 176 % of control | dose: 31.1 mg/kg/injection, schedule: Q01DX009 (ip), vehicle: saline 156 % of control | dose: 32.9 mg/kg/injection, schedule: Q01DX009 (ip), vehicle: saline 164 % of control | dose: 43.2 mg/kg/injection, schedule: Q03HX024 (ip), vehicle: saline 182 % of control | dose: 49.4 mg/kg/injection, schedule: Q01DX009 (ip), vehicle: saline 174 % of control | dose: 51.8 mg/kg/injection, schedule: Q01DX009 (ip), vehicle: saline 177 % of control | dose: 74.1 mg/kg/injection, schedule: Q01DX009 (ip), vehicle: saline 182 % of control | dose: 77.8 mg/kg/injection, schedule: Q04DX003 (ip), vehicle: saline 153 % of control | dose: 79.0 mg/kg/injection, schedule: Q01DX009 (ip), vehicle: saline 170 % of control | dose: 79.0 mg/kg/injection, schedule: Q01DX009 (sc), vehicle: saline 165 % of control | dose: 86.4 mg/kg/injection, schedule: Q01DX004 (ip), vehicle: saline 173 % of control | dose: 86.4 mg/kg/injection, schedule: Q01DX009 (ip), vehicle: saline 177 % of control | dose: 111.0 mg/kg/injection, schedule: Q01DX009 (ip), vehicle: saline 201 % of control | dose: 118.0 mg/kg/injection, schedule: Q01DX009 (ip), vehicle: saline 185 % of control | dose: 118.0 mg/kg/injection, schedule: Q01DX009 (sc), vehicle: saline 176 % of control | dose: 125.0 mg/kg/injection, schedule: Q04DX003 (ip), vehicle: saline 162 % of control | dose: 130.0 mg/kg/injection, schedule: Q04DX003 (ip), vehicle: saline 168 % of control and 171 % of control | dose: 144.0 mg/kg/injection, schedule: Q01DX004 (ip), vehicle: saline 178 % of control | dose: 144.0 mg/kg/injection, schedule: Q01DX009 (ip), vehicle: saline 199 % of control | dose: 160.0 mg/kg/injection, schedule: Q01DX005 (ip), vehicle: saline 159 % of control | dose: 167.0 mg/kg/injection, schedule: Q01DX009 (ip), vehicle: saline 204 % of control | dose: 177.0 mg/kg/injection, schedule: Q01DX009 (ip), vehicle: saline 177 % of control | dose: 177.0 mg/kg/injection, schedule: Q01DX009 (sc), vehicle: saline 178 % of control | dose: 216.0 mg/kg/injection, schedule: Q04DX003 (ip), vehicle: saline 161 % of control and 201 % of control | dose: 240.0 mg/kg/injection, schedule: Q01DX004 (ip), vehicle: saline 183 % of control | dose: 250.0 mg/kg/injection, schedule: Q01DX009 (ip), vehicle: saline 190 % of control | dose: 250.0 mg/kg/injection, schedule: Q04DX003 (ip), vehicle: saline 182 % of control | dose: 320.0 mg/kg/injection, schedule: Q01DX005 (ip), vehicle: saline 175 % of control | dose: 324.0 mg/kg/injection, schedule: Q01DX001 (ip), vehicle: saline 168 % of control | dose: 360.0 mg/kg/injection, schedule: Q04DX003 (ip), vehicle: saline 171 % of control and 227 % of control | dose: 500.0 mg/kg/injection, schedule: Q04DX003 (ip), vehicle: saline 197 % of control | dose: 540.0 mg/kg/injection, schedule: Q01DX001 (ip), vehicle: saline 174 % of control | dose: 900.0 mg/kg/injection, schedule: Q01DX001 (ip), vehicle: saline 154 % of control and 190 % of control | dose: 900.0 mg/kg/injection, schedule: Q01DX001 (sc), vehicle: saline 154 % of control | dose: 1350.0 mg/kg/injection, schedule: Q01DX001 (ip), vehicle: saline 150 % of control
86 % of control and 201 % of control: dose: 600.0 mg/kg/injection, schedule: Q04DX003 (ip), vehicle: saline
inactive: dose: 10.0 mg/kg/injection, schedule: Q01DX005 (ip), vehicle: saline 112 % of control | dose: 20.0 mg/kg/injection, schedule: Q01DX005 (ip), vehicle: saline 123 % of control | dose: 117.0 mg/kg/injection, schedule: Q04DX003 (oral), vehicle: saline 106 % of control | dose: 118.0 mg/kg/injection, schedule: Q01DX009 (oral), vehicle: saline 100 % of control | dose: 194.0 mg/kg/injection, schedule: Q04DX003 (oral), vehicle: saline 110 % of control | dose: 324.0 mg/kg/injection, schedule: Q04DX003 (oral), vehicle: saline 95 % of control | dose: 400.0 mg/kg/injection, schedule: Q01DX001 (oral), vehicle: saline 97 % of control | dose: 400.0 mg/kg/injection, schedule: Q01DX004 (ip), vehicle: saline 46 % of control | dose: 540.0 mg/kg/injection, schedule: Q04DX003 (oral), vehicle: saline 110 % of control | dose: 900.0 mg/kg/injection, schedule: Q01DX001 (oral), vehicle: saline 100 % of control | dose: 1350.0 mg/kg/injection, schedule: Q01DX001 (sc), vehicle: saline 120 % of control | dose: 1500.0 mg/kg/injection, schedule: Q01DX001 (ip), vehicle: saline 119 % of control

COc1cccc(Cc2ccncc2)c1OC
inactive: dose: 25.0 mg/kg/injection, schedule: Q01DX009 (ip), vehicle: water 104 % of control | dose: 50.0 mg/kg/injection, schedule: Q01DX009 (ip), vehicle: water 98 % of control | dose: 100.0 mg/kg/injection, schedule: Q01DX009 (ip), vehicle: water 98 % of control

Cc1ccc(C)c(C2NC(=O)c3ccccc3N2)c1 (centres undefined)
inactive: [1] 121 % of control | [2] 115 % of control

CC(=O)Nc1ccc(OC(=O)Nc2ccccc2Cl)cc1
inactive: dose: 100.0 mg/kg/injection, schedule: Q04DX003 (ip), vehicle: Klucel (hydroxypropylcellulose) (HPC) 93 % of control | dose: 200.0 mg/kg/injection, schedule: Q04DX003 (ip), vehicle: Klucel (hydroxypropylcellulose) (HPC) 113 % of control | dose: 400.0 mg/kg/injection, schedule: Q04DX003 (ip), vehicle: Klucel (hydroxypropylcellulose) (HPC) 106 % of control

O=C(O)c1ccc2c3c(ccc(C(=O)O)c13)CC2
inactive: dose: 25.0 mg/kg/injection, schedule: Q01DX009 (ip), vehicle: Klucel (hydroxypropylcellulose) (HPC) 92 % of control | dose: 50.0 mg/kg/injection, schedule: Q01DX009 (ip), vehicle: Klucel (hydroxypropylcellulose) (HPC) 91 % of control

COC1CC(C)C(OC)C2=CC(=O)C=C(NC(=O)/C(C)=C/C=C\C(C)C(OC(N)=O)/C(C)=C\C(C)C1OC)C2=O (centres undefined)
active: dose: 5.0 mg/kg/injection, schedule: Q01DX009 (ip), vehicle: saline + alcohol 152 % of control | dose: 10.0 mg/kg/injection, schedule: Q01DX009 (ip), vehicle: saline + alcohol 172 % of control

CO[C@H](/C(C)=C/C=C/C(C)=C/c1coc(C)n1)[C@H](C)[C@H]1C[C@@H](O)[C@@]2(C)O[C@H]2/C=C/[C@@H](C)[C@@H]2C[C@@H](CC(=O)O2)C[C@H]2O[C@@H]2C(=O)O1
active: dose: 0.4 mg/kg/injection, schedule: Q01DX009 (ip), vehicle: Klucel (hydroxypropylcellulose) (HPC) 153 % of control | dose: 0.5 mg/kg/injection, schedule: Q01DX009 (sc), vehicle: Klucel (hydroxypropylcellulose) (HPC) 181 % of control

Cc1cc([NH-])c([NH-])cc1C.[Cl][Pt+2][Cl]
inactive: dose: 1.25 mg/kg/injection, schedule: Q01DX009 (ip), vehicle: saline with Tween-80 108 % of control | dose: 2.5 mg/kg/injection, schedule: Q01DX009 (ip), vehicle: saline with Tween-80 123 % of control
active: dose: 10.0 mg/kg/injection, schedule: Q01DX009 (ip), vehicle: saline with Tween-80 161 % of control

CCn1cnc2c(=S)nc[nH]c21
inactive: dose: 6.25 mg/kg/injection, schedule: Q01DX009 (ip), vehicle: saline with Tween-80 97 % of control | dose: 12.5 mg/kg/injection, schedule: Q01DX009 (ip), vehicle: saline with Tween-80 86 % of control | dose: 25.0 mg/kg/injection, schedule: Q01DX009 (ip), vehicle: saline with Tween-80 95 % of control | dose: 50.0 mg/kg/injection, schedule: Q01DX009 (ip), vehicle: saline with Tween-80 89 % of control and 104 % of control

Cc1c(Cl)cccc1NC(=O)c1ccccc1C(=O)O
inactive: [1] 100 % of control | [2] 102 % of control

O=C(OCCCCCCl)c1ccccc1
inactive: dose: 100.0 mg/kg/injection, schedule: Q01DX009 (ip), vehicle: saline with Tween-80 117 % of control | dose: 200.0 mg/kg/injection, schedule: Q01DX009 (ip), vehicle: saline with Tween-80 104 % of control | dose: 400.0 mg/kg/injection, schedule: Q01DX009 (ip), vehicle: saline with Tween-80 106 % of control

O=[N+]([O-])c1cccc(N=P(c2ccccc2)(c2ccccc2)c2ccccc2)c1
inactive: [1] 97 % of control | [2] 101 % of control | dose: 400.0 mg/kg/injection, schedule: Q01DX009 (ip), vehicle: Klucel (hydroxypropylcellulose) (HPC) 94 % of control
